{"source": "paper PMC13192270", "about": "“RhlR quorum-sensing receptor ligand sensitivity regulates the differential expression of phenazine genes in Pseudomonas aeruginosa” (Journal of Bacteriology, 2026)", "key": {"[1]": {"molecular_target": "T1, RhlR A44M in ΔrhlI strain (Pseudomonas aeruginosa, UniProt P54292, A44M)", "T1 construct": "expressed in transfected cells; host or cells: P. aeruginosa UCBPP-PA14 ΔrhlI, mutant allele placed on the chromosome at the native rhlR locus", "T1 sequence (P54292 1-241 A44M)": "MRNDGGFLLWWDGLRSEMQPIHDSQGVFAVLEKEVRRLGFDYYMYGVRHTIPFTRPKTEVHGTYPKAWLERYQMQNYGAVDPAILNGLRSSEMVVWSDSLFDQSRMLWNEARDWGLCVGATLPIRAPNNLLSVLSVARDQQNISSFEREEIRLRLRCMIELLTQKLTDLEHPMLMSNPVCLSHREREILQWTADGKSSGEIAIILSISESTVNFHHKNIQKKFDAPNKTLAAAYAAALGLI", "test": "ChIP-seq of RhlR-binding sites", "type": "cell-based", "conditions": "2 µM C4HSL", "method": "(§1) P. aeruginosa strains were grown overnight, back diluted 1:100 in fresh LB media, and grown to an OD600 = 2.0. Crosslinking, lysis, and immunoprecipitation were performed as previously described ([37])."}, "[2]": {"molecular_target": "T2, WT RhlR in ΔrhlI strain (Pseudomonas aeruginosa, UniProt P54292)", "T2 construct": "Comparison of ChIP enrichment from the ΔrhlI and ΔrhlI RhlR T58L strains; endogenous in cells; host or cells: P. aeruginosa UCBPP-PA14 ΔrhlI", "T2 sequence (P54292 1-241)": "T1 sequence (P54292 1-241 A44M) with M44A", "test": "ChIP-seq of RhlR-binding sites", "type": "cell-based", "conditions": "2 µM C4HSL", "method": "as §1"}}, "note": "Numbering of substitutions follows the chain as printed."}
{"smiles": "CCCC(=O)N[C@H]1CCOC1=O", "note": "[C4HSL, N-butyryl-L-homoserine lactone]", "values": [{"measurement": "ChIP-seq enrichment at PA14_01490 (rahU) (peak 139,733)", "setting": "[1]", "value": 36.29}, {"measurement": "ChIP-seq enrichment at PA14_06320 (peak 560,072)", "setting": "[1]", "value": 207.8}, {"measurement": "ChIP-seq enrichment at PA14_10360 (peak 895,433)", "setting": "[1]", "value": 557.9}, {"measurement": "ChIP-seq enrichment at PA14_16100*, PA14_16110 (peak 1,372,370)", "setting": "[1]", "value": 41.27}, {"measurement": "ChIP-seq enrichment at PA14_18800 (peak 1,620,628)", "setting": "[1]", "value": 459}, {"measurement": "ChIP-seq enrichment at PA14_18810 operon (peak 1,621,028)", "setting": "[1]", "value": 216.7}, {"measurement": "ChIP-seq enrichment at PA14_20130, PA14_20140 (fpr) (peak 1,735,823)", "setting": "[1]", "value": 187.2}, {"measurement": "ChIP-seq enrichment at PA14_21020 (azeB) operon, PA14_21030 (peak 1,816,906)", "setting": "[1]", "value": "2,385.1"}, {"measurement": "ChIP-seq enrichment at PA14_22090 (peak 1,921,598)", "setting": "[1]", "value": 403.3}, {"measurement": "ChIP-seq enrichment at PA14_28250*, PA14_28260 (peak 2,444,398)", "setting": "[1]", "value": 18.9}, {"measurement": "ChIP-seq enrichment at PA14_29620, fhp operon (peak 2,568,048)", "setting": "[1]", "value": 698.1}, {"measurement": "ChIP-seq enrichment at PA14_30570, PA14_30580 (vqsR) (peak 2,647,472)", "setting": "[1]", "value": 454.9}, {"measurement": "ChIP-seq enrichment at PA14_30840* (peak 2,677,542)", "setting": "[1]", "value": 631.2}, {"measurement": "ChIP-seq enrichment at PA14_37745 operon (peak 3,364,761)", "setting": "[1]", "value": 0}, {"measurement": "ChIP-seq enrichment at PA14_48140 operon (peak 4,285,523)", "setting": "[1]", "value": 89.06}, {"measurement": "ChIP-seq enrichment at PA14_48530 operon (peak 4,313,855)", "setting": "[1]", "value": 870.2}, {"measurement": "ChIP-seq enrichment at PA14_49310 (peak 4,382,169)", "setting": "[1]", "value": 273.4}, {"measurement": "ChIP-seq enrichment at PA14_49740, PA14_49750 operon (peak 4,425,570)", "setting": "[1]", "value": 518.7}, {"measurement": "ChIP-seq enrichment at PA14_57970*, PA14_57980 (peak 5,159,548)", "setting": "[1]", "value": 16.73}, {"measurement": "ChIP-seq enrichment at PA14_59180* (peak 5,268,881)", "setting": "[1]", "value": 320.1}, {"measurement": "ChIP-seq enrichment at PA_48530* (peak 4,314,560)", "setting": "[1]", "value": 476.8}, {"measurement": "ChIP-seq enrichment at arcD operon (peak 6,093,032)", "setting": "[1]", "value": 97.46}, {"measurement": "ChIP-seq enrichment at hcnA operon, exoY (peak 3,236,436)", "setting": "[1]", "value": 998.8}, {"measurement": "ChIP-seq enrichment at hsiA2 operon, hcpD (peak 3,831,541)", "setting": "[1]", "value": 840.8}, {"measurement": "ChIP-seq enrichment at lasA (peak 3,600,666)", "setting": "[1]", "value": 0}, {"measurement": "ChIP-seq enrichment at lasB (peak 1,387,361)", "setting": "[1]", "value": 155.1}, {"measurement": "ChIP-seq enrichment at lecB, PA14_20620 operon (peak 1,774,336)", "setting": "[1]", "value": "3,659.5"}, {"measurement": "ChIP-seq enrichment at pa1L (peak 2,721,761)", "setting": "[1]", "value": 431.4}, {"measurement": "ChIP-seq enrichment at peak 5,414,219", "setting": "[1]", "value": 86.36}, {"measurement": "ChIP-seq enrichment at phzA1 operon, phzM (peak 813,529)", "setting": "[1]", "value": "1,47.87"}, {"measurement": "ChIP-seq enrichment at phzA2 operon (peak 3,561,969)", "setting": "[1]", "value": 134.6}, {"measurement": "ChIP-seq enrichment at phzB1*, phzC1 (peak 812,427)", "setting": "[1]", "value": 872.5}, {"measurement": "ChIP-seq enrichment at phzB2*, phzC2 (peak 3,561,157)", "setting": "[1]", "value": 241.2}, {"measurement": "ChIP-seq enrichment at phzH (peak 64,211)", "setting": "[1]", "value": "1,287.1"}, {"measurement": "ChIP-seq enrichment at rhlA operon (peak 1,648,391)", "setting": "[1]", "value": 636}, {"measurement": "ChIP-seq enrichment at rhlI (peak 1,651,804)", "setting": "[1]", "value": 425}, {"measurement": "ChIP-seq enrichment at rmlB operon (peak 6,082,366)", "setting": "[1]", "value": 428.1}, {"measurement": "ChIP-seq enrichment at rpsL operon (peak 754,615)", "setting": "[1]", "value": 128.1}, {"measurement": "ChIP-seq enrichment at tnpS, tnpT operon (peak 3,188,223)", "setting": "[1]", "value": 255}, {"measurement": "ChIP-seq enrichment at PA14_01490 (rahU) (peak 139,733)", "setting": "[2]", "value": "1,797.7"}, {"measurement": "ChIP-seq enrichment at PA14_06320 (peak 560,072)", "setting": "[2]", "value": "1,705.2"}, {"measurement": "ChIP-seq enrichment at PA14_10360 (peak 895,433)", "setting": "[2]", "value": "1,134.9"}, {"measurement": "ChIP-seq enrichment at PA14_16100*, PA14_16110 (peak 1,372,370)", "setting": "[2]", "value": "1,180.9"}, {"measurement": "ChIP-seq enrichment at PA14_18800 (peak 1,620,628)", "setting": "[2]", "value": 664.1}, {"measurement": "ChIP-seq enrichment at PA14_18810 operon (peak 1,621,028)", "setting": "[2]", "value": 127.1}, {"measurement": "ChIP-seq enrichment at PA14_20130, PA14_20140 (fpr) (peak 1,735,823)", "setting": "[2]", "value": 258.2}, {"measurement": "ChIP-seq enrichment at PA14_21020 (azeB) operon, PA14_21030 (peak 1,816,906)", "setting": "[2]", "value": "4,251.6"}, {"measurement": "ChIP-seq enrichment at PA14_22090 (peak 1,921,598)", "setting": "[2]", "value": 402.5}, {"measurement": "ChIP-seq enrichment at PA14_28250*, PA14_28260 (peak 2,444,398)", "setting": "[2]", "value": 126.8}, {"measurement": "ChIP-seq enrichment at PA14_29620, fhp operon (peak 2,568,048)", "setting": "[2]", "value": "2,516.7"}, {"measurement": "ChIP-seq enrichment at PA14_30570, PA14_30580 (vqsR) (peak 2,647,472)", "setting": "[2]", "value": 770.7}, {"measurement": "ChIP-seq enrichment at PA14_30840* (peak 2,677,542)", "setting": "[2]", "value": "7,49.74"}, {"measurement": "ChIP-seq enrichment at PA14_37745 operon (peak 3,364,761)", "setting": "[2]", "value": 408.8}, {"measurement": "ChIP-seq enrichment at PA14_48140 operon (peak 4,285,523)", "setting": "[2]", "value": 311.1}, {"measurement": "ChIP-seq enrichment at PA14_48530 operon (peak 4,313,855)", "setting": "[2]", "value": 838.3}, {"measurement": "ChIP-seq enrichment at PA14_49310 (peak 4,382,169)", "setting": "[2]", "value": "1,250.8"}, {"measurement": "ChIP-seq enrichment at PA14_49740, PA14_49750 operon (peak 4,425,570)", "setting": "[2]", "value": "1,588.8"}, {"measurement": "ChIP-seq enrichment at PA14_57970*, PA14_57980 (peak 5,159,548)", "setting": "[2]", "value": 826}, {"measurement": "ChIP-seq enrichment at PA14_59180* (peak 5,268,881)", "setting": "[2]", "value": 381.4}, {"measurement": "ChIP-seq enrichment at PA_48530* (peak 4,314,560)", "setting": "[2]", "value": 258.8}, {"measurement": "ChIP-seq enrichment at arcD operon (peak 6,093,032)", "setting": "[2]", "value": "1,302.3"}, {"measurement": "ChIP-seq enrichment at hcnA operon, exoY (peak 3,236,436)", "setting": "[2]", "value": "2,43.83"}, {"measurement": "ChIP-seq enrichment at hsiA2 operon, hcpD (peak 3,831,541)", "setting": "[2]", "value": "1,370.2"}, {"measurement": "ChIP-seq enrichment at lasA (peak 3,600,666)", "setting": "[2]", "value": 239.4}, {"measurement": "ChIP-seq enrichment at lasB (peak 1,387,361)", "setting": "[2]", "value": 597.9}, {"measurement": "ChIP-seq enrichment at lecB, PA14_20620 operon (peak 1,774,336)", "setting": "[2]", "value": "16,502.8"}, {"measurement": "ChIP-seq enrichment at pa1L (peak 2,721,761)", "setting": "[2]", "value": 204.8}, {"measurement": "ChIP-seq enrichment at peak 5,414,219", "setting": "[2]", "value": 519}, {"measurement": "ChIP-seq enrichment at phzA1 operon, phzM (peak 813,529)", "setting": "[2]", "value": "5,438.8"}, {"measurement": "ChIP-seq enrichment at phzA2 operon (peak 3,561,969)", "setting": "[2]", "value": 575.2}, {"measurement": "ChIP-seq enrichment at phzB1*, phzC1 (peak 812,427)", "setting": "[2]", "value": "1,614.1"}, {"measurement": "ChIP-seq enrichment at phzB2*, phzC2 (peak 3,561,157)", "setting": "[2]", "value": 214.5}, {"measurement": "ChIP-seq enrichment at phzH (peak 64,211)", "setting": "[2]", "value": "1,937.1"}, {"measurement": "ChIP-seq enrichment at rhlA operon (peak 1,648,391)", "setting": "[2]", "value": "4,107.6"}, {"measurement": "ChIP-seq enrichment at rhlI (peak 1,651,804)", "setting": "[2]", "value": 562.1}, {"measurement": "ChIP-seq enrichment at rmlB operon (peak 6,082,366)", "setting": "[2]", "value": "2,46.6"}, {"measurement": "ChIP-seq enrichment at rpsL operon (peak 754,615)", "setting": "[2]", "value": 580.9}, {"measurement": "ChIP-seq enrichment at tnpS, tnpT operon (peak 3,188,223)", "setting": "[2]", "value": 365.2}]}
